Numbering of substitutions follows the chain as printed. Read-outs that look alike come from different tables or passages of the source.
What was measured:
[1] = molecular target: R128(X) ΔG210 double-mutant enzymes; format: biochemical, Amaranthus tuberculatus
PPO2 R128H ΔG210 = molecular target: T1, PPO2 R128H ΔG210 (Amaranthus tuberculatus, UniProt Q0NZW9, DEL210/R128H); assay: biochemical; format: biochemical
T1 sequence (Q0NZW9 with tags, fused parts or gaps R128H/DEL210): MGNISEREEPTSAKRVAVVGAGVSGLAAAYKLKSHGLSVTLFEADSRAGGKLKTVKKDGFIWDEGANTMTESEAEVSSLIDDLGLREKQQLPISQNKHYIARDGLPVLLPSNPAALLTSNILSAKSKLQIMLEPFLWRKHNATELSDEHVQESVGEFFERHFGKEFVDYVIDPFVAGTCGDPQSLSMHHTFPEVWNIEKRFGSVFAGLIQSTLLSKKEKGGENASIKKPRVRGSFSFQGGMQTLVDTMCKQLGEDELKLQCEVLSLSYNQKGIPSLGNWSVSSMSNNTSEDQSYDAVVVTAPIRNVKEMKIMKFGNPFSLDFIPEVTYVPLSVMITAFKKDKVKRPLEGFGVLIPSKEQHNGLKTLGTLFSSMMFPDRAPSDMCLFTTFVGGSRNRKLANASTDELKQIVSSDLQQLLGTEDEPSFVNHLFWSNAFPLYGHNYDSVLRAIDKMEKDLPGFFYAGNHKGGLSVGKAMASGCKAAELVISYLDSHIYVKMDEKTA

PPO2 ΔG210 = molecular target: T2, PPO2 ΔG210 (Amaranthus tuberculatus, UniProt Q0NZW9, DEL210-210); format: biochemical
T2 sequence (Q0NZW9 with tags, fused parts or gaps DEL210-210): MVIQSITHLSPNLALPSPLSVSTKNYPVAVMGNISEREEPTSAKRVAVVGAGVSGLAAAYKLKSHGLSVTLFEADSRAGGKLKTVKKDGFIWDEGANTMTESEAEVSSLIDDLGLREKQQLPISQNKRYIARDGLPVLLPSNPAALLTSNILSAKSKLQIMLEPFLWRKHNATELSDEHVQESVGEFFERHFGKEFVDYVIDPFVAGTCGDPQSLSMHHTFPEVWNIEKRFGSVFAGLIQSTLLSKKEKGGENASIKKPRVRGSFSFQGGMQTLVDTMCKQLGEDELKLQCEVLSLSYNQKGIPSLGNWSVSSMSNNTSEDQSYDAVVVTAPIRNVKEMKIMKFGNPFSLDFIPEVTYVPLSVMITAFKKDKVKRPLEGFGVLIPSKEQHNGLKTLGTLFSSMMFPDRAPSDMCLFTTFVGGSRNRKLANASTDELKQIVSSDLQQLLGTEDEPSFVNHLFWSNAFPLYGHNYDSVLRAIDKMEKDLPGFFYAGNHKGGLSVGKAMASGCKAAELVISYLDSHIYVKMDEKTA

[2] = molecular target: T3, PPO2 R128I ΔG210 in Escherichia coli hemG (Amaranthus tuberculatus, UniProt Q0NZW9, DEL210-210/R128I, cells depend on it); format: cell-based; settings: read-out: IC50 (E. coli hemG growth)
T3 sequence (Q0NZW9 with tags, fused parts or gaps R128I/DEL210-210): T1 sequence (Q0NZW9 with tags, fused parts or gaps R128H/DEL210) with H98I

[3] = molecular target: T4, PPO2 R128A ΔG210 in Escherichia coli hemG (Amaranthus tuberculatus, UniProt Q0NZW9, DEL210/R128A, cells depend on it); format: cell-based; settings: read-out: IC50 (E. coli hemG growth)
T4 sequence (Q0NZW9 with tags, fused parts or gaps R128A/DEL210): T1 sequence (Q0NZW9 with tags, fused parts or gaps R128H/DEL210) with H98A

[4] = molecular target: T5, PPO2 R128E ΔG210 in Escherichia coli hemG (Amaranthus tuberculatus, UniProt Q0NZW9, DEL210/R128E, cells depend on it); format: cell-based; settings: read-out: IC50 (E. coli hemG growth)
T5 sequence (Q0NZW9 with tags, fused parts or gaps R128E/DEL210): T1 sequence (Q0NZW9 with tags, fused parts or gaps R128H/DEL210) with H98E

[5] = read-out: IC50 (over R128(X) ΔG210 mutants)

Compound	IC50 [1, 5] [nM]	IC50 (PPO2 R128H ΔG210) [nM]	IC50 (PPO2 ΔG210) [nM]	IC50 [2] [nM]	IC50 ([1]; read-out: IC50 values) [nM]	IC50 ([1]; read-out: IC50 values (range over variants)) [nM]	IC50 [3] [nM]	IC50 [4] [nM]	Resistance factor (PPO2 R128H ΔG210)	Resistance factor (PPO2 ΔG210)
CS(=O)(=O)NC(=O)c1cc(Oc2ccc(C(F)(F)F)cc2Cl)ccc1[N+](=O)[O-] [Fomesafen, fomesafen]	< 10000	> 10000	> 10000	–	–	–	–	–	–	–
CCOC(=O)C(C)OC(=O)c1cc(Oc2ccc(C(F)(F)F)cc2Cl)ccc1[N+](=O)[O-] (stereo not drawn) [Lactofen, lactofen]	–	1590	544	> 10000	> 10000	100 to 1000	> 10000	2890	–	–
CC(C)N(C)S(=O)(=O)NC(=O)c1cc(-n2c(=O)cc(C(F)(F)F)n(C)c2=O)c(F)cc1Cl [Saflufenacil, saflufenacil]	< 10000	> 10000	2040	> 10000	–	–	> 10000	> 10000	–	–
C#CCN1C(=O)C(F)(F)Oc2cc(F)c(-n3c(=O)n(C)c(=S)n(C)c3=O)cc21 [Trifludimoxazin, trifludimoxazin]	1 to 100	30.2	1.83	82.9	–	–	46.5	9.87	123	7

— PMC10092844, “Inhibition profile of trifludimoxazin towards PPO2 target site mutations” (Pest Management Science, 2022)
